# Laboratory results published in patent US8586751B2, “Nicotinamide compounds useful as kinase modulators” (Bristol-Myers Squibb Company, priority 2009, dated 2013).
# Where two headings read alike, the source gives them in different places.
# Experiments:
# [1] = test system: Ramos B cells with beta-lactamase reporter gene under control of an NFAT response element; experiment: NFAT-bla RA1 Reporter Assay (Ramos-NFAT); type: cell-based, human; conditions: read-out: IMM Ramos-NFAT (IC50)
# Method: NFAT-bla RA1 Reporter Assay
# Ramos B cells containing a stable integration of a beta-lactamase reporter gene under the control of an NFAT response element (NFAT-bla RA1, Invitrogen, K1434) at a density of 100×10^3 cells/well were incubated with test compounds at 37° C. for 30 min prior to stimulation with F(ab′)2 anti-human IgM (Jackson ImmunoResearch, 109-006-129) at 2.5 μg/ml for 4.5 hrs at 37° C. After stimulation, LiveBLAzer-FRET B/G substrate (CCF2/AM, or CCF4/AM, Invitrogen) was added to each well and incubated for 90 min at room temperature in the dark. Assay plates were read on an LJL Analyst, with raw emission values subtracted from a media-only blank containing substrate in assay media (no cells). The ratios of 460 nm/530 nm emission (405 nm excitation) were used to calculate the amount of stimulation.
# human recombinant Btk = molecular target: T1, human recombinant Btk (Homo sapiens, UniProt Q06187); experiment: Human Recombinant Btk Enzyme Assay (LLE_BTK); type: biochemical
# T1 construct: purchased Invitrogen Corporation
# Method: Human Recombinant Btk Enzyme Assay
# To V-bottom 384-well plates were added test compounds, human recombinant Btk (1 nM, Invitrogen Corporation), fluoresceinated peptide (1.5 μM), ATP (20 μM), and assay buffer (20 mM HEPES pH 7.4, 10 mM MgCl2, 0.015% Brij35 and 4 mM DTT in 1.6% DMSO), with a final volume of 30 μL. After incubating at room temperature for 60 min, the reaction was terminated by adding 45 μl of 35 mM EDTA to each sample. The reaction mixture was analyzed on the Caliper LABCHIP® 3000 (Caliper, Hopkinton, Mass.) by electrophoretic separation of the fluorescent substrate and phosphorylated product. Inhibition data were calculated by comparison to no enzyme control reactions for 100% inhibition and no inhibitor controls for 0% inhibition. Dose response curves were generated to determine the concentration required inhibiting 50% of kinase activity (IC50). Compounds were dissolved at 10 mM in dimethylsulfoxide (DMSO) and evaluated at eleven concentrations.
# Using this assay, the following IC50 values derived by non-linear regression analysis were determined and compared to those values of certain compounds in U.S. Publication No. 2007/078136 and U.S. Publication No. 2008/045536.
# T1 sequence (Q06187 whole entry): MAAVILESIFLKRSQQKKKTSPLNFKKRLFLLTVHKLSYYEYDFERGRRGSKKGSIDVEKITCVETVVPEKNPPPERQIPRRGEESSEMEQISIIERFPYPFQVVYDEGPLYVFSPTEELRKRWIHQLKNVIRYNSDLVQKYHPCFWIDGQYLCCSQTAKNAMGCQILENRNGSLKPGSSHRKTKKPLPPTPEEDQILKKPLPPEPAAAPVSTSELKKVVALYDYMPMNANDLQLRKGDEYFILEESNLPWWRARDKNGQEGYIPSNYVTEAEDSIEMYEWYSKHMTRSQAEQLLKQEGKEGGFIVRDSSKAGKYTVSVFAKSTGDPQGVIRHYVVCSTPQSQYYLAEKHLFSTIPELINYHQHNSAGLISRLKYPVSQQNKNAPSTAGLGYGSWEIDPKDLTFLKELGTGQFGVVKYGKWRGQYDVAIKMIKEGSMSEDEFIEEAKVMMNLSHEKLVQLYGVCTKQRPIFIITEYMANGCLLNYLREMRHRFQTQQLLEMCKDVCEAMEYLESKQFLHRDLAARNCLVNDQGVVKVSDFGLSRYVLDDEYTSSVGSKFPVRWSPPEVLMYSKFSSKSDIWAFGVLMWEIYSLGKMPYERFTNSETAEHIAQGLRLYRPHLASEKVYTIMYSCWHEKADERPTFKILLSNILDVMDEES
Compound,"IC50 ([1]; Homo sapiens, Ramos) [µM]",IC50 (human recombinant Btk) [µM],IC50 [1] [µM]
CN1CCN(c2ccc(Nc3nc(N4CCC[C@@H](N5CCCC5=O)C4)c(F)cc3C(N)=O)cc2)CC1 [Example 419],0.18,0.001,–
NC(=O)c1cc(F)c(N2CCC[C@@H](NC(=O)Nc3nccs3)C2)nc1Nc1ccc(N2CCOCC2)cc1 [Example 421],0.04,0.002,–
NC(=O)c1cc(F)c(N2CCC[C@@H](NC(=O)c3ccccc3)C2)nc1Nc1ccc(N2CCOCC2)cc1 [Example 422],0.12,0.02,–
NC(=O)c1cc(F)c(C2CCCC(OC(=O)c3ccccc3)C2)nc1Nc1ccc(N2CCOCC2)cc1 (stereo not drawn) [Example 430],10,0.74,–
COc1ccc([C@H](C)N[C@H]2CCC[C@H](c3nc(Nc4ccc(N5CCOCC5)cc4)c(C(N)=O)cc3F)C2)cc1 [Example 435],4.5,1.3,–
COc1ccc([C@H](C)N[C@H]2CCC[C@@H](c3nc(Nc4ccc(N5CCOCC5)cc4)c(C(N)=O)cc3F)C2)cc1 [Example 436],7.9,2.2,–
COc1ccc([C@H](C)N[C@@H]2C=C(c3nc(Nc4ccc(N5CCOCC5)cc4)c(C(N)=O)cc3F)CCC2)cc1 [Example 437],2.9,0.74,–
NC(=O)c1cc(F)c(N2CCC[C@@H](NC(=O)Nc3nccs3)C2)nc1Nc1ccc(N2CCOCC2)c(F)c1 [Example 451],0.08,0.0008,–
NC(=O)c1cc(F)c(N2CCC[C@@H](NC(=O)c3ccc(F)c(Cl)c3)C2)nc1Nc1ccc(F)cc1 [Example 456],10,4.3,–
CN(C)CCc1ccc(Nc2nc(N3CCC[C@@H](NC(=O)Nc4nccs4)C3)c(F)cc2C(N)=O)cc1 [Example 458],0.03,0.0006,0.05
CN(C)CCc1ccc(Nc2nc(N3CCC[C@@H](NC(=O)Nc4nncs4)C3)c(F)cc2C(N)=O)cc1 [Example 462],0.25,0.002,–
CN(C)CCc1ccc(Nc2nc(N3CCCC(F)(F)C3)c(F)cc2C(N)=O)cc1 [Example 475],0.1,0.02,–
CN1CCN(c2ccc(Nc3nc(N4CCC[C@@H](NC(=O)c5ccccc5)C4)c(F)cc3C(N)=O)cc2F)CC1 [Example 479],0.07,0.001,–
CN1CCN(c2ccc(Nc3nc(N4CCC[C@@H](NC(=O)Nc5nccs5)C4)c(F)cc3C(N)=O)cc2F)CC1 [Example 480],0.04,0.0002,–
CN1CCN(c2ccc(Nc3nc(N4CCC[C@@H](N5CCCC5=O)C4)c(F)cc3C(N)=O)cc2F)CC1 [Example 482],0.17,0.002,–
CN1CCC(c2ccc(Nc3nc(N4CCCCC4)c(F)cc3C(N)=O)cc2)CC1 [Example 489],0.1,0.01,–
CN1CCC(c2ccc(Nc3nc(N4CCC[C@@H](NC(=O)c5ccccc5)C4)c(F)cc3C(N)=O)cc2)CC1 [Example 490],0.27,0.003,–
CN1CCC(c2ccc(Nc3nc(N4CCC[C@@H](NC(=O)c5ccc(F)cc5)C4)c(F)cc3C(N)=O)cc2)CC1 [Example 491],0.2,0.002,–
CN1CCC(c2ccc(Nc3nc(N4CCC[C@@H](NC(=O)Nc5nccs5)C4)c(F)cc3C(N)=O)cc2)CC1 [Example 492],0.02,0.001,–
CN1CCC(c2ccc(Nc3nc(N4CCC[C@@H](NC(=O)Nc5nncs5)C4)c(F)cc3C(N)=O)cc2)CC1 [Example 493],0.13,0.0007,–
CN1CCC(C)(c2ccc(Nc3nc(N4CCC[C@@H](NC(=O)Nc5ncc(F)s5)C4)c(F)cc3C(N)=O)cc2)CC1 [Example 495],0.08,0.001,–
NC(=O)c1cc(F)c(N2CCC[C@@H](NC(=O)c3ccccc3)C2)nc1Nc1ccc(N2CCS(=O)(=O)CC2)cc1 [Example 503],0.08,0.007,–
CS(=O)(=O)c1ccc(Nc2nc(N3CCC[C@@H](NC(=O)c4ccccc4)C3)c(F)cc2C(N)=O)cc1 [Example 506],0.15,0.002,–
CN1CCC(C)(c2ccc(Nc3nc(N4CCC[C@@H](NC(=O)c5ccccc5)C4)c(F)cc3C(N)=O)cc2)CC1 [Example 518],0.03,0.002,–
CN1CCC(C)(c2ccc(Nc3nc(N4CCC[C@@H](NC(=O)Nc5nccs5)C4)c(F)cc3C(N)=O)cc2)CC1 [Example 554],0.04,0.0007,–
CN1CCC(C)(c2ccc(Nc3nc(N4CCC[C@@H](N5CCCC5=O)C4)c(F)cc3C(N)=O)cc2)CC1 [Example 566],0.09,0.003,–
CN1CCC(O)(c2ccc(Nc3nc(N4CCC[C@@H](N5CCCC5=O)C4)c(F)cc3C(N)=O)cc2)C(C)(C)C1 (stereo partly drawn) [Example 568],0.12,0.001,–
CN1CCC(C)(c2ccc(Nc3nc(N4CCCC5(CC(c6ccccc6)=NO5)C4)c(F)cc3C(N)=O)cc2)CC1 (stereo not drawn) [Example 571],0.15,0.002,–

# Results, then the compound that gave them:
"IC50 ([1]; Homo sapiens, Ramos) [µM]",IC50 (human recombinant Btk) [µM],IC50 [1] [µM],Compound
0.14,0.0008,–,CN(C)S(=O)(=O)c1ccc(Nc2nc(N3CCC[C@@H](NC(=O)c4ccccc4)C3)c(F)cc2C(N)=O)cc1 [Example 508]
10,3.7,–,CC(C)(C)OC(=O)N1CCCC(c2ccc(Nc3nc(N4CCCCC4)c(F)cc3C(N)=O)cc2)C1 (stereo not drawn) [Example 523]
5.7,1.6,–,CC(C)(C)OC(=O)N1CCC(O)(c2ccc(Nc3nc(N4CCCCC4)c(F)cc3C(N)=O)cc2)C(C)(C)C1 (stereo not drawn) [Example 524]
0.56,0.0009,–,CN1CCN(C(=O)c2ccc(Nc3nc(N4CCC[C@@H](NC(=O)Nc5nccs5)C4)c(F)cc3C(N)=O)cc2)CC1 [Example 544]
0.16,0.002,–,NC(=O)c1cc(F)c(N2CCC[C@@H](NC(=O)Nc3nccs3)C2)nc1Nc1ccc(CCO)cc1 [Example 545]
0.23,0.003,–,CS(=O)(=O)c1ccc(Nc2nc(N3CCC[C@@H](NC(=O)Nc4nccs4)C3)c(F)cc2C(N)=O)cc1 [Example 546]
0.05,0.001,–,NC(=O)c1cc(F)c(N2CCC[C@@H](NC(=O)Nc3nccs3)C2)nc1Nc1ccc(CCN2CCC2)cc1 [Example 547]
0.27,0.002,–,NC(=O)c1cc(F)c(N2CCC[C@@H](NC(=O)Nc3nccs3)C2)nc1Nc1ccc(CCn2ccnc2)cc1 [Example 548]
0.03,0.0007,–,NC(=O)c1cc(F)c(N2CCC[C@@H](NC(=O)Nc3nccs3)C2)nc1Nc1ccc(CCN2CCCC2)cc1 [Example 549]
0.12,0.002,–,CC(C)(C)NCCc1ccc(Nc2nc(N3CCC[C@@H](NC(=O)Nc4nccs4)C3)c(F)cc2C(N)=O)cc1 [Example 550]
5.4,0.001,–,C[N+](C)([O-])CCc1ccc(Nc2nc(N3CCC[C@@H](NC(=O)Nc4nccs4)C3)c(F)cc2C(N)=O)cc1 [Example 552]
0.19,0.003,–,NC(=O)c1cc(F)c(N2CCC[C@@H](NC(=O)Nc3nccs3)C2)nc1Nc1ccc(C2CCOCC2)cc1 [Example 555]
0.06,0.002,–,CN1CCCC(c2ccc(Nc3nc(N4CCC[C@@H](NC(=O)Nc5nccs5)C4)c(F)cc3C(N)=O)cc2)C1 (stereo partly drawn) [Example 557]
0.38,0.002,–,CN1CCCC(c2ccc(Nc3nc(N4CCC[C@@H](NC(=O)Nc5nncs5)C4)c(F)cc3C(N)=O)cc2)C1 (stereo partly drawn) [Example 558]
0.07,0.002,–,CN1CCCC(c2ccc(Nc3nc(N4CCC[C@@H](NC(=O)Nc5nnc(C(F)(F)F)s5)C4)c(F)cc3C(N)=O)cc2)C1 (stereo partly drawn) [Example 559]
0.18,0.0008,–,CN1CCCC(c2ccc(Nc3nc(N4CCC[C@@H](NC(=O)Nc5nnc(C6CC6)s5)C4)c(F)cc3C(N)=O)cc2)C1 (stereo partly drawn) [Example 560]
0.14,0.0009,–,CN1CCCC(c2ccc(Nc3nc(N4CCC[C@@H](NC(=O)Nc5nnc(C(C)(C)C)s5)C4)c(F)cc3C(N)=O)cc2)C1 (stereo partly drawn) [Example 561]
0.1,0.001,–,CN1CCCC(c2ccc(Nc3nc(N4CCC[C@@H](NC(=O)Nc5ncc(F)s5)C4)c(F)cc3C(N)=O)cc2)C1 (stereo partly drawn) [Example 564]
